Measurements: paper PMC12677843, “Multidisciplinary Preclinical Investigations on Ferrocenyl, Ruthenocenyl, and Benzyl Derivatives of Niridazole as New Drug Candidates against Schistosomiasis” (Chemmedchem, 2025)
Where two headings read alike, the source gives them in different places.

How the values were obtained:
[1] = test system: adult S. mansoni; assay: In vitro drug sensitivity assay on adult S. mansoni (microscopic viability scoring); format: cell-based, Schistosoma mansoni; conditions: for EC50: Schistosoma mansoni, 37 °C, 5% CO2
Experimental: Figure 3 In vitro activity at 50 µM of the 12 compounds on adult S. mansoni. Adult schistosomes were incubated in culture media for 72 h at 37 °C and 5% CO2 with either compound (50 µM) or a DMSO (0.5%) control. The viability of the worms was microscopically evaluated and scored (0—3, in 0.5 steps) every 24 h. Results are from two independent experiments, each performed in duplicate. Drug activities were normalized to the DMSO controls. Data represent mean ± SD in percentage of DMSO control. […]
In vitro evaluation on adult S. mansoni
After a week for acclimatization to the new environment with controlled conditions (temperature: 22 °C ± 2 °C, humidity: 50 % ± 10 %, 12:12 h light/dark photocycle), four-week-old female NMRI mice (Charles River, Sulzfeld, Germany) were subcutaneously infected with approximately 100 cercariae to establish the S. mansoni infection. In the S. mansoni infected mice the worms were allowed to develop for 7 weeks into the adult stage, before they were extracted from the mesenteric veins of the euthanized mice. The adult worms were placed into RPMI 1640 (Gibco, Waltham MA, USA) medium supplemented with 1 % penicillin/streptomycin mixture and 5 % iFCS at 37 °C and 5 % CO 2. The drug sensitivity assay was set up in a 24-well plate with two wells containing each two pairs of S. mansoni worms per compound and concentration.
The final volume per well was 2 mL, containing the culture medium and the corresponding amount of drug dissolved in DMSO. The maximum concentration tested was 50 µM, corresponding to 0.5 % DMSO, to which all the other wells were adapted […]
(§1) to, so that all test concentrations contained always the same amount of DMSO.
(§2) Additionally, 2 wells with negative controls containing only DMSO and the culture medium were included. After an incubation period of 72 h at 37 °C and 5 % CO 2, the worms were microscopically evaluated. The drug effect was determined 24, 48 and 72 h post-exposure based on the phenotype of the adult worms, using a viability scale ranging from three referring to viable, motile worms with no change in their tegument to zero standing for the death of the worms.
All described in vitro studies with mice involved, were conducted at the Swiss Tropical and Public Health Institute, first in Basel, later in Allschwil, and had the approval by the corresponding veterinary authorities of the Canton Basel-Stadt (permit no. 2070)

[2] = test system: HUH7 hepatocarcinoma cells; assay: XTT mitochondrial activity/cell viability assay, HUH7; format: cell-based; conditions: 20 µM, 24 h, serum-free media, vs DMSO control (0.2%)
Experimental: Results were normalized to the DMSO control. […]
as §1, §2
All described in vitro studies with mice involved, were conducted at the Swiss Tropical and Public Health Institute, first in Basel, later in Allschwil, and had the approval by the corresponding veterinary authorities of the Canton Basel-Stadt (permit no. 2070) […]
Following 24 h of incubation, 12.5 μL of an XTT/phenazine methosulfate (PMS) (XTT Sigma Aldrich cat X4626, PMS Serva CAT: 3203) 0.02solution (1 mg/mL XTT and 7.5 μg/mL PMS) was added to each well. Absorbance was measured using a microplate reader (Biotek Synergy HT) at 450 nm (signal) and 650 nm (background), 2 h after the addition of the XTT/PMS solution. […] Mean ± SD was determined from three independent experiments, each performed in quintuplicate. […]
The cytotoxic potential was additionally evaluated using the staining-based SYTOX viability assay. […]

[3] = test system: SH-SY5Y cells; assay: SYTOX cell viability assay, SH-SY5Y; format: cell-based, human; conditions: 20 µM, 24 h, serum-free charcoal-treated medium, vs DMSO control (0.2%), mean
Experimental: The SYTOX cell viability assay was performed in SHSY5Y cells. Cells were treated with either compound (20 µM) or DMSO control (0.2%) for 24 h at 37 °C and 5% CO2 in serum‐free charcoal‐treated medium. Results were normalized to the DMSO control. Mean ± SD was calculated from three independent experiments, each performed in quadruplicate. […]
serum-free media containing either treatment at a concentration of 20 µM or DMSO (ITW Reagents Cat A3672) control (0.2 %).
Following 24 h of incubation, 12.5 μL of an XTT/phenazine methosulfate (PMS) (XTT Sigma Aldrich cat X4626, PMS Serva CAT: 3203) 0.02solution (1 mg/mL XTT and 7.5 μg/mL PMS) was added to each well. Absorbance was measured using a microplate reader (Biotek Synergy HT) at 450 nm (signal) and 650 nm (background), 2 h after the addition of the XTT/PMS solution. Individual backgrounds were subtracted and all results were normalized to DMSO control. Mean ± SD was determined from three independent experiments, each performed in quintuplicate.
SYTOX cell viability assay
The cytotoxic potential was additionally evaluated using the staining-based SYTOX viability assay. […] Data was acquired on the BioTeck Cytation5 microscope and evaluated by the manufacturer’s software (Gen5 Image Prime Version 3.12). […] Mean ± SD was determined from three independent experiments, each performed in quadruplicate. […]

For `O=C1NCCN1c1ncc([N+](=O)[O-])s1` [Niridazole, niridazole], the “drug effect at 50 µM on adult S. mansoni” value ([1]; 50 µM, 72 h incubation, normalized to DMSO control, active if ≥60%) was 83%, the EC50 ([1]; 24 h, 24 h drug exposure, read-out: EC50 on adult S. mansoni, 24 h) was over 50 µM and the EC50 ([1]; 48 h, 48 h drug exposure, read-out: EC50 on adult S. mansoni, 48 h) was 7.8 µM. For the same molecule, the EC50 ([1]; 72 h, 72 h drug exposure, read-out: EC50 on adult S. mansoni, 72 h) was 5.6 µM, the “XTT activity in HUH7 cells compared to DMSO control” value [2] was “no signs of toxicity” and the “reduction of SH-SY5Y cell viability (SYTOX)” value [3] was “no signs of toxicity”.
